From the supplement of paper PMC10883282

Assays:
Assay in all cases: relative viability vs DMSO control (72 h) (fraction); higher = more viable cells
SYO-1 = test system: SYO-1
How it was run: (§1)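 Sarcoma cell lines were plated in 384 wells to reach 80–90% confluence, treated after 24 h with 2.5 µl of serially diluted compound and held 72 h at 37 °C, 5% CO2. Relative viability was taken as percent growth from ATPLite readings, averaged over up to triplicate wells. The values were rescaled so that 1 marks full and 0 marks none.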

RD = test system: RD
How it was run: as §1

SW684 = test system: SW684
How it was run: as §1

SW872 = test system: SW872
How it was run: as §1

HS729 = test system: HS729
How it was run: as §1

SW1353 = test system: SW1353
How it was run: as §1

KHOS-NP = test system: KHOS-NP
How it was run: as §1

G401 = test system: G401
How it was run: as §1

HT1080 = test system: HT1080
How it was run: as §1

RD-ES = test system: RD-ES
How it was run: as §1

SK-LMS-1 = test system: SK-LMS-1
How it was run: as §1

KHOS-240S = test system: KHOS-240S
How it was run: as §1

COc1cc2ncnc(Nc3cccc(Cl)c3F)c2cc1OC(=O)N1CCN(C)C[C@H]1C [AZD-3759]
Settings | relative viability
G401, 0.00017 µM | 1.03
G401, 0.00051 µM | 1.06
G401, 0.00152 µM | 1.04
G401, 0.00457 µM | 1.01
G401, 0.01372 µM | 1.02
G401, 0.04115 µM | 1.02
G401, 0.1235 µM | 1.04
G401, 0.3704 µM | 1.04
G401, 1.111 µM | 1
G401, 3.333 µM | 0.985
G401, 10 µM | 0.939
HS729, 0.00017 µM | 1.05
HS729, 0.00051 µM | 0.958
HS729, 0.00152 µM | 0.934
HS729, 0.00457 µM | 0.971
HS729, 0.01372 µM | 0.966
HS729, 0.04115 µM | 0.875
HS729, 0.1235 µM | 0.94
HS729, 0.3704 µM | 0.878
HS729, 1.111 µM | 0.856
HS729, 3.333 µM | 0.812
HS729, 10 µM | 0.781
HT1080, 0.00017 µM | 1.06
HT1080, 0.00051 µM | 1.04
HT1080, 0.00152 µM | 1.02
HT1080, 0.00457 µM | 1.04
HT1080, 0.01372 µM | 1.03
HT1080, 0.04115 µM | 1.03
HT1080, 0.1235 µM | 1.01
HT1080, 0.3704 µM | 1.02
HT1080, 1.111 µM | 1.026
HT1080, 3.333 µM | 1
HT1080, 10 µM | 1.02
KHOS-240S, 0.00017 µM | 1.04
KHOS-240S, 0.00051 µM | 1.06
KHOS-240S, 0.00152 µM | 1.06
KHOS-240S, 0.00457 µM | 1.06
KHOS-240S, 0.01372 µM | 1.05
KHOS-240S, 0.04115 µM | 1.04
KHOS-240S, 0.1235 µM | 1.05
KHOS-240S, 0.3704 µM | 1.04
KHOS-240S, 1.111 µM | 0.9537
KHOS-240S, 3.333 µM | 0.976
KHOS-240S, 10 µM | 0.878
KHOS-NP, 0.00017 µM | 1.1
KHOS-NP, 0.00051 µM | 1.11
KHOS-NP, 0.00152 µM | 1.105
KHOS-NP, 0.00457 µM | 1.1
KHOS-NP, 0.01372 µM | 1.109
KHOS-NP, 0.04115 µM | 1.07
KHOS-NP, 0.1235 µM | 1.09
KHOS-NP, 0.3704 µM | 1.04
KHOS-NP, 1.111 µM | 1.07
KHOS-NP, 3.333 µM | 0.998
KHOS-NP, 10 µM | 1.02
RD, 0.00017 µM | 1.04
RD, 0.00051 µM | 1.1
RD, 0.00152 µM | 1.1
RD, 0.00457 µM | 1.1
RD, 0.01372 µM | 1.11
RD, 0.04115 µM | 1.09
RD, 0.1235 µM | 1.09
RD, 0.3704 µM | 1.12
RD, 1.111 µM | 1.08
RD, 3.333 µM | 1.06
RD, 10 µM | 0.97
RD-ES, 0.00017 µM | 0.97
RD-ES, 0.00051 µM | 0.967
RD-ES, 0.00152 µM | 0.9816
RD-ES, 0.00457 µM | 0.977
RD-ES, 0.01372 µM | 0.983
RD-ES, 0.04115 µM | 0.991
RD-ES, 0.1235 µM | 0.9757
RD-ES, 0.3704 µM | 0.9684
RD-ES, 1.111 µM | 0.961
RD-ES, 3.333 µM | 0.948
RD-ES, 10 µM | 0.915
SK-LMS-1, 0.00017 µM | 1.14
SK-LMS-1, 0.00051 µM | 1.12
SK-LMS-1, 0.00152 µM | 1.08
SK-LMS-1, 0.00457 µM | 1.09
SK-LMS-1, 0.01372 µM | 1.09
SK-LMS-1, 0.04115 µM | 1.09
SK-LMS-1, 0.1235 µM | 1.09
SK-LMS-1, 0.3704 µM | 1.088
SK-LMS-1, 1.111 µM | 1.07
SK-LMS-1, 3.333 µM | 1.02
SK-LMS-1, 10 µM | 1.05
SW684, 0.00017 µM | 1.14
SW684, 0.00051 µM | 1.16
SW684, 0.00152 µM | 1.16
SW684, 0.00457 µM | 1.13
SW684, 0.01372 µM | 1.15
SW684, 0.04115 µM | 1.12
SW684, 0.1235 µM | 1.11
SW684, 0.3704 µM | 1.14
SW684, 1.111 µM | 1.16
SW684, 3.333 µM | 1.1
SW684, 10 µM | 1.05
SW872, 0.00017 µM | 1.07
SW872, 0.00051 µM | 1.1
SW872, 0.00152 µM | 1.06
SW872, 0.00457 µM | 1.058
SW872, 0.01372 µM | 1.032
SW872, 0.04115 µM | 1.05
SW872, 0.1235 µM | 1.04
SW872, 0.3704 µM | 1.02
SW872, 1.111 µM | 1.04
SW872, 3.333 µM | 0.9635
SW872, 10 µM | 0.828
SW1353, 0.00017 µM | 1.02
SW1353, 0.00051 µM | 1.02
SW1353, 0.00152 µM | 1.04
SW1353, 0.00457 µM | 0.998
SW1353, 0.01372 µM | 0.964
SW1353, 0.04115 µM | 0.983
SW1353, 0.1235 µM | 0.979
SW1353, 0.3704 µM | 0.868
SW1353, 1.111 µM | 0.877
SW1353, 3.333 µM | 0.8196
SW1353, 10 µM | 0.769
SYO-1, 0.00017 µM | 1.03
SYO-1, 0.00051 µM | 0.995
SYO-1, 0.00152 µM | 0.987
SYO-1, 0.00457 µM | 0.977
SYO-1, 0.01372 µM | 0.951
SYO-1, 0.04115 µM | 0.947
SYO-1, 0.1235 µM | 0.891
SYO-1, 0.3704 µM | 0.896
SYO-1, 1.111 µM | 0.851
SYO-1, 3.333 µM | 0.783
SYO-1, 10 µM | 0.614
